Reference: PubChem BioAssay (NCI)
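In this assay, cells in 96-well plates receive the compound at five concentrations for 48 hours. Endpoints are linearly interpolated between the surrounding concentrations. At the TGI there is no net growth.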

Tests used:
Assay in all cases: inhibition of tumour cell growth, NCI panel, 48 h
IGROV1 ovarian = test system: IGROV1 ovarian
SK-MEL-5 melanoma = test system: SK-MEL-5 melanoma
SF-539 CNS = test system: SF-539 CNS
SNB-19 CNS = test system: SNB-19 CNS
LOX IMVI melanoma = test system: LOX IMVI melanoma
OVCAR-4 ovarian = test system: OVCAR-4 ovarian
NCI-H23 lung = test system: NCI-H23 lung
HT29 colon = test system: HT29 colon
MDA-MB-231 breast = test system: MDA-MB-231 breast
MDA-N = test system: MDA-N

Compound	TGI (IGROV1 ovarian)	TGI (SK-MEL-5 melanoma)	TGI (SF-539 CNS)	TGI (SNB-19 CNS)	TGI (LOX IMVI melanoma)	TGI (OVCAR-4 ovarian)	TGI (NCI-H23 lung)	TGI (HT29 colon)	TGI (MDA-MB-231 breast)	TGI (MDA-N)
CN(C)c1cc[n+](-c2nc(/N=C(\[O-])C(F)(F)F)nc3c2ncn3C2CC(O)C(CO)O2)cc1 (stereo not drawn)	> 100 µM	> 100 µM	> 100 µM	> 100 µM	> 100 µM	> 100 µM	> 100 µM	> 100 µM	> 100 µM	> 100 µM
COc1cc(C2c3cc4c(cc3OC(NCCO)C2C)OCO4)cc(OC)c1OC (stereo not drawn)	> 100 µM	13.4 µM	0.635 µM	> 100 µM	> 100 µM	> 100 µM	> 100 µM	21.4 µM	> 100 µM	0.5 µM
COc1cc(N(Cc2ccc3oc(=O)c(-c4ccccc4)nc3c2)Cc2ccc3oc(=O)c(-c4ccccc4)nc3c2)cc(OC)c1OC	> 10 µM	> 10 µM	> 10 µM	> 10 µM	> 10 µM	> 10 µM	> 10 µM	> 10 µM	> 10 µM	> 10 µM
Cc1ccccc1NC(=O)Cc1csc2[n+]1C(=O)/C(=C/c1ccc([N+](=O)[O-])cc1)S2	> 100 µM	> 100 µM	> 100 µM	> 100 µM	> 100 µM	35.3 µM	84.3 µM	> 100 µM	> 100 µM	> 100 µM
Cc1ccc2c(c1)C(=O)C(C1OC(=O)c3ccccc31)C2 (stereo not drawn)	> 100 µM	> 100 µM	> 100 µM	> 100 µM	> 100 µM	> 100 µM	> 100 µM	> 100 µM	> 100 µM	> 100 µM
Cn1c(N/N=C/c2ccccc2)nc(-c2ccc([N+](=O)[O-])cc2)c(C#N)c1=O	> 100 µM	> 100 µM	> 100 µM	> 100 µM	> 100 µM	> 100 µM	> 100 µM	> 100 µM	86.7 µM	> 100 µM
CCOC(=O)C1=C(C)N(c2ccc(OC)cc2)C2(O)C=CC(=O)C3=C(O)c4ccccc4C(=O)C312 (stereo not drawn)	15.6 µM	24.6 µM	21.2 µM	41.1 µM	22.4 µM	10.9 µM	37.4 µM	32.7 µM	34.8 µM	34 µM
C/C1=C\C=C(\C(C)C)CC/C(C(=O)O)=C\CC/C(C)=C/CC1	> 100 µM	34.7 µM	34.8 µM	51.2 µM	49.5 µM	> 100 µM	42.7 µM	99 µM	39.2 µM	82 µM
S=C(Nc1ccc2cn[nH]c2c1)Nc1ccc2cn[nH]c2c1	> 100 µM	> 100 µM	> 100 µM	> 100 µM	> 100 µM	> 100 µM	> 100 µM	> 100 µM	> 100 µM	> 100 µM
CC(=N\N)/C(C)=N/N=C(C)/C(C)=N/N=C(C)/C(C)=N/N	> 100 µM	> 100 µM	> 100 µM	> 100 µM	> 100 µM	> 100 µM	> 100 µM	> 100 µM	> 100 µM	> 100 µM
C(=C\N1CCCCC1)/c1nnnn1-c1ccccc1	82.8 µM	58.9 µM	76.6 µM	> 100 µM	50.9 µM	> 100 µM	> 100 µM	> 100 µM	61.6 µM	> 100 µM
O=C1Nc2ccccc2/C1=c1\[nH]c(=O)/c(=C\c2ccc(OCc3ccccc3)cn2)[nH]c1=O	> 100 µM	> 100 µM	55.5 µM	> 100 µM	> 100 µM	> 100 µM	> 100 µM	> 100 µM	91.7 µM	> 100 µM
COc1cc(-c2ccccc2N)c2cccnc2c1OC	11.1 µM	26.3 µM	21.6 µM	18.6 µM	15.3 µM	19.6 µM	19.6 µM	16.3 µM	20.6 µM	20.2 µM
CCn1c(SCC(=O)NNC(=S)NC)nc2ccccc2c1=O	> 100 µM	> 100 µM	> 100 µM	> 100 µM	> 100 µM	> 100 µM	> 100 µM		> 100 µM	> 100 µM
O=C(CCc1ccccc1)On1c(-c2ccccc2)nc2ccccc2c1=S	> 100 µM	47.2 µM	20.7 µM	> 100 µM	83.6 µM	> 100 µM	28 µM	> 100 µM	> 100 µM	> 100 µM
CCN(CC)c1ccc2cc(C(=O)Nc3ccccn3)c(=N)oc2c1	> 100 µM	> 100 µM	> 100 µM	76.2 µM	> 100 µM	> 100 µM	> 100 µM	> 100 µM	> 100 µM	> 100 µM
C[C@H]1S[C@H](c2c(Cl)cccc2Cl)N2Cc3ccccc3N=C12	26.1 µM	23.3 µM	38.1 µM	23.3 µM	32.6 µM	> 100 µM	28.8 µM		> 100 µM	> 100 µM
